# Results as given in US20110039721A1, “METHOD FOR PREDICTION ABOUT CARCINOGENICITY OF SUBSTANCE IN RODENT” (Chemicals Evaluation and Research Institute, priority 2007, published 2011).
# What was measured:
# [1] = system: mRNA expressed from the genes (A) to (D) in rat liver; experiment: Behavior of genes (mRNA expression level, oligo-DNA microarray) in rat liver after 28-day oral administration; type: in vivo; conditions: for Behavior of gene caused by administration of chemical substance, Gene No. 4846 / Behavior of gene caused by administration of chemical substance, Gene No. 2026 / Behavior of gene caused by administration of chemical substance, Gene No. 4218 / Behavior of gene caused by administration of chemical substance, Gene No. 6182 / Behavior of gene caused by administration of chemical substance, Gene No. 5600: gene group (A); for Behavior of gene caused by administration of chemical substance, Gene No. 4846: Unigene No. Rn.144554; for Behavior of gene caused by administration of chemical substance, Gene No. 2026 / Behavior of gene caused by administration of chemical substance, Gene No. 4218: Unigene No. Rn.167075; for Behavior of gene caused by administration of chemical substance, Gene No. 6182: Unigene No. Rn.5834; for Behavior of gene caused by administration of chemical substance, Gene No. 5600: Unigene No. Rn.9836; for Behavior of gene caused by administration of chemical substance, Gene No. 1494 / Behavior of gene caused by administration of chemical substance, Gene No. 2045 / Behavior of gene caused by administration of chemical substance, Gene No. 2203: gene group (B); for Behavior of gene caused by administration of chemical substance, Gene No. 1494: Unigene No. Rn.1430; for Behavior of gene caused by administration of chemical substance, Gene No. 2045: Unigene No. Rn.19329; for Behavior of gene caused by administration of chemical substance, Gene No. 2203: Unigene No. Rn.21240; for Behavior of gene caused by administration of chemical substance, Gene No. 533 / Behavior of gene caused by administration of chemical substance, Gene No. 725 / Behavior of gene caused by administration of chemical substance, Gene No. 1163 / Behavior of gene caused by administration of chemical substance, Gene No. 4973 / Behavior of gene caused by administration of chemical substance, Gene No. 4095 / Behavior of gene caused by administration of chemical substance, Gene No. 1334 / Behavior of gene caused by administration of chemical substance, Gene No. 6620 / Behavior of gene caused by administration of chemical substance, Gene No. 6303 / Behavior of gene caused by administration of chemical substance, Gene No. 5878 / Behavior of gene caused by administration of chemical substance, Gene No. 1131 / Behavior of gene caused by administration of chemical substance, Gene No. 1562 / Behavior of gene caused by administration of chemical substance, Gene No. 1741 / Behavior of gene caused by administration of chemical substance, Gene No. 893 / Behavior of gene caused by administration of chemical substance, Gene No. 6026 / Behavior of gene caused by administration of chemical substance, Gene No. 154 / Behavior of gene caused by administration of chemical substance, Gene No. 1993 / Behavior of gene caused by administration of chemical substance, Gene No. 813 / Behavior of gene caused by administration of chemical substance, Gene No. 2494 / Behavior of gene caused by administration of chemical substance, Gene No. 2546 / Behavior of gene caused by administration of chemical substance, Gene No. 3776 / Behavior of gene caused by administration of chemical substance, Gene No. 3929 / Behavior of gene caused by administration of chemical substance, Gene No. 1119 / Behavior of gene caused by administration of chemical substance, Gene No. 6742 / Behavior of gene caused by administration of chemical substance, Gene No. 5634: gene group (C); for Behavior of gene caused by administration of chemical substance, Gene No. 533: Unigene No. Rn.106184; for Behavior of gene caused by administration of chemical substance, Gene No. 725: Unigene No. Rn.108075; for Behavior of gene caused by administration of chemical substance, Gene No. 1163: Unigene No. Rn.11766; for Behavior of gene caused by administration of chemical substance, Gene No. 4973: Unigene No. Rn.118529; for Behavior of gene caused by administration of chemical substance, Gene No. 4095: Unigene No. Rn.119024; for Behavior of gene caused by administration of chemical substance, Gene No. 1334 / Behavior of gene caused by administration of chemical substance, Gene No. 6620: Unigene No. Rn.120914; for Behavior of gene caused by administration of chemical substance, Gene No. 6303: Unigene No. Rn.123063; for Behavior of gene caused by administration of chemical substance, Gene No. 5878: Unigene No. Rn.143213; for Behavior of gene caused by administration of chemical substance, Gene No. 1131: Unigene No. Rn.144946; for Behavior of gene caused by administration of chemical substance, Gene No. 1562: Unigene No. Rn.14744; for Behavior of gene caused by administration of chemical substance, Gene No. 1741: Unigene No. Rn.1647; for Behavior of gene caused by administration of chemical substance, Gene No. 893: Unigene No. Rn.164817; for Behavior of gene caused by administration of chemical substance, Gene No. 6026: Unigene No. Rn.167685; for Behavior of gene caused by administration of chemical substance, Gene No. 154: Unigene No. Rn.185941; for Behavior of gene caused by administration of chemical substance, Gene No. 1993: Unigene No. Rn.18728; for Behavior of gene caused by administration of chemical substance, Gene No. 813: Unigene No. Rn.201760; for Behavior of gene caused by administration of chemical substance, Gene No. 2494: Unigene No. Rn.23969; for Behavior of gene caused by administration of chemical substance, Gene No. 2546: Unigene No. Rn.24561; for Behavior of gene caused by administration of chemical substance, Gene No. 3776: Unigene No. Rn.43232; for Behavior of gene caused by administration of chemical substance, Gene No. 3929: Unigene No. Rn.4620; for Behavior of gene caused by administration of chemical substance, Gene No. 1119: Unigene No. Rn.9757; for Behavior of gene caused by administration of chemical substance, Gene No. 6742: Unigene No. Rn.9779; for Behavior of gene caused by administration of chemical substance, Gene No. 5634: Unigene No. Rn.9862; for Behavior of gene caused by administration of chemical substance, Gene No. 5726: gene group (D), Unigene No. Rn.9939
# How it was run: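 Liver mRNA levels were compared with matched vehicle groups, with a shift of at least 1.5-fold up or down deemed significant unless its direction disagreed with other carcinogens. Test substances were dosed orally by gavage daily for 28 days to 5-week-old male F344 rats, four per group.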
# liver = conditions: classification of the substance (Cr+/Cr−); cited from earlier work
# rodent = conditions: classification of the substance (C+/C−); cited from earlier work
# [2] = classification of the substance (M+/M−); cited from earlier work
compound,measurement,setting,value
"ClC(Cl)C(Cl)(Cl)Cl [TS055, Pentachloroethane]","Behavior of gene caused by administration of chemical substance, Gene No. 4846",[1]; mRNA vs vehicle control group,−
same,"Behavior of gene caused by administration of chemical substance, Gene No. 2026",[1]; mRNA vs vehicle control group,−
same,"Behavior of gene caused by administration of chemical substance, Gene No. 4218",[1]; mRNA vs vehicle control group,−
same,"Behavior of gene caused by administration of chemical substance, Gene No. 6182",[1]; mRNA vs vehicle control group,−
same,"Behavior of gene caused by administration of chemical substance, Gene No. 5600",[1]; mRNA vs vehicle control group,−
same,"Behavior of gene caused by administration of chemical substance, Gene No. 1494",[1]; mRNA vs vehicle control group,+
same,"Behavior of gene caused by administration of chemical substance, Gene No. 2045",[1]; mRNA vs vehicle control group,−
same,"Behavior of gene caused by administration of chemical substance, Gene No. 2203",[1]; mRNA vs vehicle control group,−
same,"Behavior of gene caused by administration of chemical substance, Gene No. 533",[1]; mRNA vs vehicle control group,+
same,"Behavior of gene caused by administration of chemical substance, Gene No. 725",[1]; mRNA vs vehicle control group,−
same,"Behavior of gene caused by administration of chemical substance, Gene No. 1163",[1]; mRNA vs vehicle control group,+
same,"Behavior of gene caused by administration of chemical substance, Gene No. 4973",[1]; mRNA vs vehicle control group,+
same,"Behavior of gene caused by administration of chemical substance, Gene No. 4095",[1]; mRNA vs vehicle control group,+
same,"Behavior of gene caused by administration of chemical substance, Gene No. 1334",[1]; mRNA vs vehicle control group,+
same,"Behavior of gene caused by administration of chemical substance, Gene No. 6620",[1]; mRNA vs vehicle control group,+
same,"Behavior of gene caused by administration of chemical substance, Gene No. 6303",[1]; mRNA vs vehicle control group,+
same,"Behavior of gene caused by administration of chemical substance, Gene No. 5878",[1]; mRNA vs vehicle control group,+
same,"Behavior of gene caused by administration of chemical substance, Gene No. 1131",[1]; mRNA vs vehicle control group,+
same,"Behavior of gene caused by administration of chemical substance, Gene No. 1562",[1]; mRNA vs vehicle control group,+
same,"Behavior of gene caused by administration of chemical substance, Gene No. 1741",[1]; mRNA vs vehicle control group,+
same,"Behavior of gene caused by administration of chemical substance, Gene No. 893",[1]; mRNA vs vehicle control group,+
same,"Behavior of gene caused by administration of chemical substance, Gene No. 6026",[1]; mRNA vs vehicle control group,+
same,"Behavior of gene caused by administration of chemical substance, Gene No. 154",[1]; mRNA vs vehicle control group,+
same,"Behavior of gene caused by administration of chemical substance, Gene No. 1993",[1]; mRNA vs vehicle control group,+
same,"Behavior of gene caused by administration of chemical substance, Gene No. 813",[1]; mRNA vs vehicle control group,+
same,"Behavior of gene caused by administration of chemical substance, Gene No. 2494",[1]; mRNA vs vehicle control group,+
same,"Behavior of gene caused by administration of chemical substance, Gene No. 2546",[1]; mRNA vs vehicle control group,+
same,"Behavior of gene caused by administration of chemical substance, Gene No. 3776",[1]; mRNA vs vehicle control group,+
same,"Behavior of gene caused by administration of chemical substance, Gene No. 3929",[1]; mRNA vs vehicle control group,+
same,"Behavior of gene caused by administration of chemical substance, Gene No. 1119",[1]; mRNA vs vehicle control group,+
same,"Behavior of gene caused by administration of chemical substance, Gene No. 6742",[1]; mRNA vs vehicle control group,+
same,"Behavior of gene caused by administration of chemical substance, Gene No. 5634",[1]; mRNA vs vehicle control group,+
same,"Behavior of gene caused by administration of chemical substance, Gene No. 5726",[1]; mRNA vs vehicle control group,+
same,Liver carcinogenicity,liver,Cr−
same,Carcinogenicity,rodent,C+
same,Mutagenicity by Ames test,[2],M−
"Cl.Cl.Nc1ccc(N)cc1 [TS059, p-Phenylenediamine 2HCl]","Behavior of gene caused by administration of chemical substance, Gene No. 4846",[1],−
same,"Behavior of gene caused by administration of chemical substance, Gene No. 2026",[1],−
same,"Behavior of gene caused by administration of chemical substance, Gene No. 4218",[1],−
same,"Behavior of gene caused by administration of chemical substance, Gene No. 6182",[1],−
same,"Behavior of gene caused by administration of chemical substance, Gene No. 5600",[1],−
same,"Behavior of gene caused by administration of chemical substance, Gene No. 1494",[1],−
same,"Behavior of gene caused by administration of chemical substance, Gene No. 2045",[1],−
same,"Behavior of gene caused by administration of chemical substance, Gene No. 2203",[1],−
same,"Behavior of gene caused by administration of chemical substance, Gene No. 533",[1],−
same,"Behavior of gene caused by administration of chemical substance, Gene No. 725",[1],−
same,"Behavior of gene caused by administration of chemical substance, Gene No. 1163",[1],−
same,"Behavior of gene caused by administration of chemical substance, Gene No. 4973",[1],+
same,"Behavior of gene caused by administration of chemical substance, Gene No. 4095",[1],+
same,"Behavior of gene caused by administration of chemical substance, Gene No. 1334",[1],+
same,"Behavior of gene caused by administration of chemical substance, Gene No. 6620",[1],+
same,"Behavior of gene caused by administration of chemical substance, Gene No. 6303",[1],−
same,"Behavior of gene caused by administration of chemical substance, Gene No. 5878",[1],−
same,"Behavior of gene caused by administration of chemical substance, Gene No. 1131",[1],−
same,"Behavior of gene caused by administration of chemical substance, Gene No. 1562",[1],+
same,"Behavior of gene caused by administration of chemical substance, Gene No. 1741",[1],+
same,"Behavior of gene caused by administration of chemical substance, Gene No. 893",[1],+
same,"Behavior of gene caused by administration of chemical substance, Gene No. 6026",[1],−
same,"Behavior of gene caused by administration of chemical substance, Gene No. 154",[1],+
same,"Behavior of gene caused by administration of chemical substance, Gene No. 1993",[1],+
same,"Behavior of gene caused by administration of chemical substance, Gene No. 813",[1],−
same,"Behavior of gene caused by administration of chemical substance, Gene No. 2494",[1],−
same,"Behavior of gene caused by administration of chemical substance, Gene No. 2546",[1],+
same,"Behavior of gene caused by administration of chemical substance, Gene No. 3776",[1],+
same,"Behavior of gene caused by administration of chemical substance, Gene No. 3929",[1],+
same,"Behavior of gene caused by administration of chemical substance, Gene No. 1119",[1],+
same,"Behavior of gene caused by administration of chemical substance, Gene No. 6742",[1],−
same,"Behavior of gene caused by administration of chemical substance, Gene No. 5634",[1],+
same,"Behavior of gene caused by administration of chemical substance, Gene No. 5726",[1],+
same,Liver carcinogenicity,liver,Cr−
same,Carcinogenicity,rodent,C−
same,Mutagenicity by Ames test,[2],M+
